Test results taken from PMC4503722, “Novel Phenotypic Outcomes Identified for a Public Collection of Approved Drugs from a Publicly Accessible Panel of Assays” (PLoS ONE, 2015).

Assays:
[1] = tested on: SW480; assay: cells; format: cell-based; conditions: for IC50 / Basal_Viability ATP SW480 IC50/EC50: assay number 24; for IC50: read-out: Basal_Viability ATP SW480 summarized IC50
[2] = tested on: ECFC/ADSC co-culture cell nuclei number; conditions: for IC50: read-out: VEGF_ADSC\ECFC Angio Hoechst NucArea summarized IC50
[3] = tested on: Colo320; assay: cells; format: cell-based; conditions: for IC50 / Basal_Viability ATP Colo 320 IC50/EC50: assay number 27; for IC50: read-out: Basal_Viability ATP Colo 320 summarized IC50
[4] = tested on: HCT116 cells treated with a GSK3β inhibitor; assay: cells; format: cell-based; conditions: for IC50 / GSK3b inh pretreated_Viability ATP HCT116 IC50/EC50: assay number 26, GSK3b inhibitor pretreated; for IC50: read-out: GSK3b inh pretreated_Viability ATP HCT116 summarized IC50; for IC50/EC50, GSK3b inh pretreated_Viability ATP HCT116 (assay number 26): GSK3b inh pretreated
[5] = tested on: HT-29; assay: cells; format: cell-based; conditions: for IC50 / Basal_Viability ATP HT-29 IC50/EC50: assay number 28; for IC50: read-out: Basal_Viability ATP HT-29 summarized IC50
[6] = tested on: DLD-1; assay: cells; format: cell-based; conditions: for IC50 / Basal_Viability ATP DLD-1 IC50/EC50: assay number 23; for IC50: read-out: Basal_Viability ATP DLD-1 summarized IC50
[7] = tested on: HCT116; assay: cells; format: cell-based; conditions: basal; for IC50 / Basal_Viability ATP HCT116 IC50/EC50: assay number 25; for IC50: read-out: Basal_Viability ATP HCT116 summarized IC50
[8] = tested on: RKO; assay: cells; format: cell-based; conditions: for IC50 / Basal_Viability ATP RKO IC50/EC50: assay number 29; for IC50: read-out: Basal_Viability ATP RKO summarized IC50
[9] = tested on: SNU-C1; assay: cells; format: cell-based; conditions: for IC50 / Basal_Viability ATP SNU-C1 IC50/EC50: assay number 30; for IC50: read-out: Basal_Viability ATP SNU-C1 summarized IC50
[10] = tested on: endothelial tube formation in co-cultures of ECFCs and ADSCs treated with VEGF; assay: cells; format: cell-based, human; conditions: for IC50: read-out: VEGF_ADSC\ECFC Angio CD31 TubeArea summarized IC50

SMILES	Basal_Viability ATP SW480 IC50/EC50 ([1]; basal)	VEGF_ADSC\ECFC Angio Hoechst NucArea IC50/EC50 [2]	Basal_Viability ATP Colo 320 IC50/EC50 ([3]; basal)	GSK3b inh pretreated_Viability ATP HCT116 IC50/EC50 [4]	Basal_Viability ATP HT-29 IC50/EC50 ([5]; basal)	Basal_Viability ATP DLD-1 IC50/EC50 ([6]; basal)	Basal_Viability ATP HCT116 IC50/EC50 [7]	Basal_Viability ATP RKO IC50/EC50 ([8]; basal)	Basal_Viability ATP SNU-C1 IC50/EC50 ([9]; basal)	VEGF_ADSC\ECFC Angio CD31 TubeArea IC50/EC50 [10]	other results
COP(=S)(OC)Oc1ccc(Sc2ccc(OP(=S)(OC)OC)cc2)cc1 [NCGC00163910-05]											IC50 ([1]; basal): 0.0118 µM; IC50 [2]: > 10 µM; IC50 ([3]; basal): > 20 µM; IC50 [4]: > 20 µM; IC50 ([5]; basal): > 20 µM; IC50 ([6]; basal): > 20 µM; IC50 [7]: > 20 µM; IC50 ([8]; basal): 12.1 µM; IC50 ([9]; basal): 3.03 µM; IC50 [10]: > 10 µM
CNS(=O)(=O)CCc1ccc2[nH]cc(C3CCN(C)CC3)c2c1.Cl [NCGC00181786-02]											IC50/EC50, Basal_Viability ATP SW480 (assay number 24) ([1]; basal): > 20 µM; IC50/EC50, VEGF_ADSC\ECFC Angio Hoechst NucArea (assay number 3) [2]: > 10 µM; IC50/EC50, Basal_Viability ATP Colo 320 (assay number 27) ([3]; basal): > 20 µM; IC50/EC50, GSK3b inh pretreated_Viability ATP HCT116 (assay number 26) [4]: 12.1308 µM; IC50/EC50, Basal_Viability ATP HT-29 (assay number 28) ([5]; basal): > 20 µM; IC50/EC50, Basal_Viability ATP DLD-1 (assay number 23) ([6]; basal): > 20 µM; IC50/EC50, Basal_Viability ATP HCT116 (assay number 25) [7]: > 20 µM; IC50/EC50, Basal_Viability ATP RKO (assay number 29) ([8]; basal): > 20 µM; IC50/EC50, Basal_Viability ATP SNU-C1 (assay number 30) ([9]; basal): > 20 µM; IC50/EC50, VEGF_ADSC\ECFC Angio CD31 TubeArea (assay number 2) [10]: > 10 µM
CCCCCCCC(=O)OCC(COC(=O)CCCCCCC)OC(=O)CCCCCCC [NCGC00091285-03]	> 20 µM	> 10 µM	> 20 µM	> 20 µM	> 20 µM	> 20 µM	> 20 µM	> 20 µM	> 20 µM	> 10 µM	
C/C(=N\O)[C@@H](C)NCC(C)(C)CN[C@H](C)/C(C)=N/O [NCGC00319018-01]	> 20 µM	> 10 µM	> 20 µM	> 20 µM	> 20 µM	> 20 µM	> 20 µM	> 20 µM	> 20 µM	> 10 µM	
O=C(CCCN1CCC(O)(c2cccc(C(F)(F)F)c2)CC1)c1ccc(F)cc1 [NCGC00015983-04]	> 20 µM	> 10 µM	> 20 µM	> 20 µM	> 20 µM	> 20 µM	> 20 µM	> 20 µM	> 20 µM	> 10 µM	
Nc1c2ccccc2nc2ccccc12 [NCGC00094857-05]											IC50 ([1]; basal): > 20 µM; IC50 [2]: > 10 µM; IC50 ([3]; basal): 8.81 µM; IC50 [4]: 3.87 µM; IC50 ([5]; basal): > 20 µM; IC50 ([6]; basal): > 20 µM; IC50 [7]: 2.02 µM; IC50 ([8]; basal): > 6.67 µM; IC50 ([9]; basal): > 6.67 µM; IC50 [10]: > 10 µM
CC(C)=CCC/C(C)=C/CC/C(C)=C/CC/C=C(\C)CC/C=C(\C)CCC=C(C)C [NCGC00181323-02]											IC50 ([1]; basal): > 20 µM; IC50 [2]: > 10 µM; IC50 ([3]; basal): > 20 µM; IC50 [4]: > 20 µM; IC50 ([5]; basal): > 20 µM; IC50 ([6]; basal): > 20 µM; IC50 [7]: > 20 µM; IC50 ([8]; basal): > 20 µM; IC50 ([9]; basal): > 20 µM; IC50 [10]: > 10 µM
Clc1ccc(C(Cn2ccnc2)OCc2ccsc2Cl)c(Cl)c1 (centres unmarked) [NCGC00167430-04]	> 20 µM	9.466 µM	5.2288 µM	2.843 µM	> 20 µM	> 20 µM	4.0687 µM	5.2538 µM	2.1843 µM	4.9961 µM	
CC1(C)[C@H](C=C(Cl)Cl)[C@@H]1C(=O)OCc1c(F)c(F)cc(F)c1F [NCGC00344542-01]		> 10 µM								> 10 µM	Basal_Viability ATP SW480 IC50/EC50 ([1]; concentration response): > 20 µM; Basal_Viability ATP Colo 320 IC50/EC50 ([3]; concentration response): > 20 µM; GSK3b inh pretreated_Viability ATP HCT116 IC50/EC50 ([4]; concentration response): > 20 µM; Basal_Viability ATP HT-29 IC50/EC50 ([5]; concentration response): > 20 µM; Basal_Viability ATP DLD-1 IC50/EC50 ([6]; concentration response): > 20 µM; Basal_Viability ATP HCT116 IC50/EC50 ([7]; concentration response): > 20 µM; Basal_Viability ATP RKO IC50/EC50 ([8]; concentration response): > 20 µM; Basal_Viability ATP SNU-C1 IC50/EC50 ([9]; concentration response): > 20 µM
CCCCC(CC)COC(=O)CC(C(=O)OCC(CC)CCCC)S(=O)(=O)O (centres unmarked) [NCGC00164140-07]											IC50 ([1]; basal): > 20 µM; IC50 [2]: > 10 µM; IC50 ([3]; basal): > 20 µM; IC50 [4]: 16.6 µM; IC50 ([5]; basal): > 20 µM; IC50 ([6]; basal): > 20 µM; IC50 [7]: > 20 µM; IC50 ([8]; basal): > 20 µM; IC50 ([9]; basal): > 20 µM; IC50 [10]: > 10 µM
NC(=O)n1c(O)c(C(=O)c2cccs2)c2cc(Cl)ccc21 [NCGC00263542-01]											IC50/EC50, Basal_Viability ATP SW480 (assay number 24) ([1]; basal): 1.02 µM; IC50/EC50, VEGF_ADSC\ECFC Angio Hoechst NucArea (assay number 3) [2]: > 10 µM; IC50/EC50, Basal_Viability ATP Colo 320 (assay number 27) ([3]; basal): 1.643 µM; IC50/EC50, GSK3b inh pretreated_Viability ATP HCT116 (assay number 26) [4]: 3.787 µM; IC50/EC50, Basal_Viability ATP HT-29 (assay number 28) ([5]; basal): 5.6005 µM; IC50/EC50, Basal_Viability ATP DLD-1 (assay number 23) ([6]; basal): 6.9467 µM; IC50/EC50, Basal_Viability ATP HCT116 (assay number 25) [7]: 2.309 µM; IC50/EC50, Basal_Viability ATP RKO (assay number 29) ([8]; basal): 4.703 µM; IC50/EC50, Basal_Viability ATP SNU-C1 (assay number 30) ([9]; basal): 0.5375 µM; IC50/EC50, VEGF_ADSC\ECFC Angio CD31 TubeArea (assay number 2) [10]: > 10 µM
CCCCC[C@@H](O)CC[C@H]1[C@@H]2Cc3cccc(OCC(=O)O)c3C[C@@H]2C[C@@H]1O [NCGC00319020-01]	> 20 µM	> 10 µM	> 20 µM	> 20 µM	> 20 µM	> 20 µM	> 20 µM	> 20 µM	> 20 µM	> 10 µM	
CCOC(=O)c1ccccc1C(=O)OCC [NCGC00090974-06]	> 20 µM	> 10 µM	> 20 µM	> 20 µM	> 20 µM	> 20 µM	> 20 µM	> 20 µM	> 20 µM	> 10 µM	
Cc1cccc(C)c1NC(=O)CC12CCCN1CCC2 [NCGC00167454-02]	> 20 µM	> 10 µM	> 20 µM	> 20 µM	> 20 µM	> 20 µM	> 20 µM	> 20 µM	> 20 µM	> 10 µM	
C=CC(C)(O)CCC=C(C)CCC=C(C)C (centres unmarked) [NCGC00344526-01]		> 10 µM								> 10 µM	Basal_Viability ATP SW480 IC50/EC50 ([1]; concentration response): > 20 µM; Basal_Viability ATP Colo 320 IC50/EC50 ([3]; concentration response): 10.2751 µM; GSK3b inh pretreated_Viability ATP HCT116 IC50/EC50 ([4]; concentration response): > 20 µM; Basal_Viability ATP HT-29 IC50/EC50 ([5]; concentration response): > 20 µM; Basal_Viability ATP DLD-1 IC50/EC50 ([6]; concentration response): > 20 µM; Basal_Viability ATP HCT116 IC50/EC50 ([7]; concentration response): > 20 µM; Basal_Viability ATP RKO IC50/EC50 ([8]; concentration response): > 20 µM; Basal_Viability ATP SNU-C1 IC50/EC50 ([9]; concentration response): > 20 µM
O=C(Nc1ccc(Br)cc1)c1cc(Br)c(Br)s1 [NCGC00160448-02]	0.1229 µM	> 10 µM	0.018 µM	0.3423 µM	0.5199 µM	0.3353 µM	0.5412 µM	0.4312 µM	1.0991 µM	> 10 µM	
CCOC(=O)[C@H](CCc1ccccc1)N[C@@H](C)C(=O)N1C(=O)N(C)C[C@H]1C(=O)O.Cl [NCGC00181342-02]	> 20 µM	> 10 µM	> 20 µM	> 20 µM	> 20 µM	> 20 µM	> 20 µM	> 20 µM	> 20 µM	> 10 µM	
